Reference: the NIST ThermoML archive (doi:10.1016/j.fluid.2016.10.005)

Assay: molar heat capacity at constant pressure; mn = molality of the nth substance listed, in mol/kg
Details: 101 kPa, Liquid, DSC

CCCCCOCCOCCOCCO [ethanol, 2-[2-[2-(pentyloxy)ethoxy]ethoxy]-] + O
molar heat capacity at constant pressure [J/K/mol]
Details | 278.15 K | 283.15 K | 288.15 K | 293.15 K | 298.15 K | 308.15 K | 318.15 K | 328.15 K | 333.15 K
m1 = 0.0166 | 75.93 | 75.77 | 75.66 | 75.59 | 75.56 | 75.53 | 75.56 | 75.61 | 75.66
m1 = 0.0321 | 76.16 | 76 | 75.9 | 75.83 | 75.8 | 75.78 | 75.79 | 75.85 | 75.9
m1 = 0.0392 | 76.27 | 76.11 | 76 | 75.94 | 75.91 | 75.89 | 75.9 | 75.96 | 76
m1 = 0.06 | 76.59 | 76.43 | 76.32 | 76.26 | 76.22 | 76.2 | 76.21 | 76.27 | 76.32
m1 = 0.0876 | 77.01 | 76.85 | 76.74 | 76.68 | 76.64 | 76.62 | 76.63 | 76.68 | 76.74
m1 = 0.1214 | 77.52 | 77.36 | 77.26 | 77.2 | 77.15 | 77.13 | 77.14 | 77.2 | 77.24
m1 = 0.1388 | 77.79 | 77.63 | 77.53 | 77.47 | 77.42 | 77.4 | 77.41 | 77.47 | 77.51
m1 = 0.1661 | 78.19 | 78.05 | 77.95 | 77.9 | 77.85 | 77.81 | 77.85 | 77.89 | 77.91
m1 = 0.1861 | 78.49 | 78.35 | 78.26 | 78.21 | 78.16 | 78.12 | 78.21 | 78.2 | 78.21
m1 = 0.2119 | 78.88 | 78.75 | 78.66 | 78.62 | 78.57 | 78.55 | 78.65 | 78.59 | 78.59
m1 = 0.2272 | 79.1 | 78.99 | 78.91 | 78.86 | 78.81 | 78.84 | 78.89 | 78.81 | 78.78
m1 = 0.2499 | 79.44 | 79.34 | 79.27 | 79.22 | 79.18 | 79.27 | 79.21 | 79.1 | 79.08
m1 = 0.2726 | 79.77 | 79.7 | 79.64 | 79.59 | 79.56 | 79.68 | 79.49 | 79.36 | 79.36
m1 = 0.2949 | 80.1 | 80.06 | 80.02 | 79.97 | 79.97 | 80.07 | 79.75 | 79.59 | 79.62
m1 = 0.314 | 80.39 | 80.37 | 80.34 | 80.32 | 80.49 | 80.32 | 79.96 | 79.8 | 79.84
m1 = 0.3353 | 80.72 | 80.73 | 80.72 | 80.85 | 80.89 | 80.6 | 80.22 | 80.05 | 80.1
m1 = 0.3562 | 81.05 | 81.08 | 81.12 | 81.34 | 81.24 | 80.83 | 80.45 | 80.3 | –
m1 = 0.3851 | 81.51 | 81.58 | 81.77 | 81.87 | 81.68 | 81.19 | 80.78 | 80.63 | –
m1 = 0.4069 | 81.92 | 82.17 | 82.36 | 82.27 | 81.99 | 81.4 | 81.01 | 80.87 | –
m1 = 0.426 | 82.31 | 82.58 | 82.73 | 82.55 | 82.25 | 81.62 | 81.22 | 81.05 | –
m1 = 0.4405 | 82.64 | 82.93 | 82.99 | 82.77 | 82.43 | 81.77 | 81.37 | 81.17 | –
m1 = 0.4693 | 83.38 | 83.6 | 83.45 | 83.15 | 82.79 | 82.05 | 81.69 | 81.49 | –
m1 = 0.4858 | 83.82 | 83.98 | 83.71 | 83.35 | 82.97 | 82.23 | 81.84 | 81.65 | –
m1 = 0.5111 | 84.48 | 84.45 | 84.09 | 83.67 | 83.27 | 82.5 | 82.12 | 81.93 | –
m1 = 0.5381 | 85.09 | 84.88 | 84.46 | 84 | 83.58 | 82.8 | 82.41 | 82.22 | 82.29
m1 = 0.5586 | 85.48 | 85.2 | 84.75 | 84.26 | 83.82 | 83.04 | 82.64 | 82.43 | 82.51
m1 = 0.5849 | 85.92 | 85.58 | 85.09 | 84.59 | 84.14 | 83.34 | 82.92 | 82.72 | 82.8
m1 = 0.6026 | 86.2 | 85.82 | 85.31 | 84.76 | 84.33 | 83.52 | 83.11 | 82.91 | 83
m1 = 0.6299 | 86.63 | 86.13 | 85.61 | 85.06 | 84.6 | 83.81 | 83.39 | 83.19 | 83.28
m1 = 0.668 | 87.17 | 86.57 | 86.02 | 85.47 | 85 | 84.22 | 83.79 | 83.6 | 83.67
m1 = 0.7037 | 87.62 | 86.92 | 86.38 | 85.83 | 85.34 | 84.59 | 84.15 | 83.97 | 84.02
m1 = 0.731 | 87.93 | 87.19 | 86.64 | 86.08 | 85.59 | 84.86 | 84.42 | 84.23 | 84.3
m1 = 0.7714 | 88.33 | 87.59 | 87 | 86.43 | 85.97 | 85.25 | 84.81 | 84.65 | 84.71
m1 = 0.8141 | 88.74 | 88.03 | 87.41 | 86.86 | 86.39 | 85.68 | 85.26 | 85.09 | 85.14
m1 = 0.8293 | 88.85 | 88.14 | 87.53 | 86.96 | 86.5 | 85.79 | 85.38 | 85.24 | 85.28
m1 = 0.8679 | 89.21 | 88.51 | 87.87 | 87.32 | 86.88 | 86.14 | 85.78 | 85.64 | 85.68
m1 = 0.9125 | 89.61 | 88.91 | 88.26 | 87.74 | 87.28 | 86.56 | 86.22 | 86.09 | 86.13
m1 = 0.9573 | 90.05 | 89.36 | 88.69 | 88.18 | 87.71 | 87 | 86.71 | 86.56 | 86.62
